Test system: Fischer-344 Ratten
Experiment: Tele-Stereo-EEG in freely moving rats (field potentials from frontal cortex, hippocampus, striatum, reticular formation; power density spectra)
Format: in vivo, Ratte
Details: rat
Procedure: Die Veränderungen der EEG-Frequenzen nach intraperitonealer Gabe von Salzlösung (Kontrolle) bzw. einer Dosis von Hesperidin (80 und 160 mg/kg Körpergewicht) wurden bestimmt.
Die Untersuchungen wurden analog der durch W. Dimpfel beschriebenen Methode (Dimpfel W Preclinical data base of pharmaco-specific rat EEG fingerprints (Tele-Stereo-EEG). Eur J Med Res (2003) 8: 199-207) folgendermaßen durchgeführt:
Zwölf männlichen erwachsenen Fischer-344 Ratten (Tag-Nacht konvertiert) wurden im Alter von 6 Monaten 4 bipolar konzentrische Elektroden zusammen mit einem Mikrostecker auf einer gemeinsamen Basisplatte implantiert. Der Stecker diente der Aufnahme eines 4-Kanal-Senders zur telemetrischen Übertragung der aus frontalem Kortex, Hippokampus, Striatum und Formation Reticularis abgeleiteten Feldpotentiale. Die Signale wurden auf einem Computer System (Software "EEG-Analyse", Betriebssystem OS Science, Laborrechner "LabTeam" der Firma MediSyst, Linden, DE) in Echtzeit einer Fast-Fourier-Transformation unterworfen und die Leistungsdichtespektren jeweils über 15 bis 60 Minuten gemittelt. Die Unterteilung der Spektren in 6 verschiedene Frequenzbereiche erlaubte die Erfassung pharmako-spezifischer Veränderungen in Bezug auf die jeweils vor Applikation gemessenen Vorwerte innerhalb dieser Frequenzbänder.
Zum Applikationsprotokoll der Substanzen: die Substanzen wurden i.p. 45 Minuten nach Beginn der Messungen (Vorwert) injiziert. Fünf Minuten später wurden die Messungen wieder gestartet, mindestens über die nächsten 5 Stunden kontinuierlich analysiert und in 60-minütigen Perioden zusammengefaßt. Die Testsubstanz wurde in einer Dosierung von 80 und 160 mg/kg appliziert. Die experimentelle Serie wurde mit der Injektion von Salzlösung (Kontrolle), die zu keiner auffälligen Änderung führte, begonnen.
Der statistische Vergleich der Versuche zu den Ergebnissen, die nach Gabe von Salzlösung gemessen wurde, erfolgte mit Hilfe einer multivariaten Analyse nach Ahrens und Läuter (siehe H. Ahrens, J. Läuter "Mehrdimensionale Varianzanalyse" (1974), Akademie Verlag, Berlin) auf der Basis der Veränderungen innerhalb der einzelnen Frequenzbänder in allen Hirnregionen als Variablen.

In the case of COc1ccc([C@@H]2CC(=O)c3c(O)cc(O[C@@H]4O[C@H](CO[C@@H]5O[C@@H](C)[C@H](O)[C@@H](O)[C@H]5O)[C@@H](O)[C@H](O)[C@H]4O)cc3O2)cc1O [Hesperidin, Hesperetin 7-rhamnoglucosid], the “zeitabhängige Veränderungen der EEG-Frequenzen (delta, theta und alpha2 Frequenzen)” value (80 or 160 mg/kg Hesperidin i.p., Fig. 3a and 3b) is reported as “nehmen statistisch signifikant und dauerhaft ab”, the “correlation of the EEG pattern with patterns of drugs for neurodegenerative diseases, pain and stroke (discriminant analysis)” value (i.p. single dose, compared with Tacrin, Piracetam, Memantine, Metamizol, Amphetamin, no correlation with patterns of drugs for other indications) is reported as “korrelieren in signifikanter Weise” and the “delta, theta und alpha2 Frequenzen” value (i.p., 160 mg/kg, first hour after administration) is reported as “Abfall”. The “duration for which the pattern (decrease of delta, theta, alpha2) was observed” value (i.p., 160 mg/kg, whole test period) was 5 Stunden, the “Veränderungen der Leistungsdichte in den einzelen Hirnregionen” value (i.p., 80 and 160 mg/kg, versus pre-drug baseline) was “dosis-abhängig zu deutlichen Veränderungen” and the “Muster der EEG-Frequenzänderungen” value (i.p., after 80 and 160 mg/kg, versus saline) was “stabiles, statistisch signifikantes Muster”.

Reference: EP1621201A1, “Hesperidin for prophylaxis and treatment of diseases of the central nervous system, in particular Alzheimer's and Parkinson's diseases, for therapy after stroke as well as for chronic pain” (NeuroCode AG, priority 2004, dated 2006)
